Data as given in patent US6716628B2, “Chondrogenesis promoters and indolin-2-one derivatives” (Chugai Seiyaku Kabushiki Kaisha, priority 1999, dated 2004).

Assays:
[1] = tested on: common mouse chondrocyte and adipocyte precursor cell line (CL-1); assay: Uptake of 35S-labeled sulfuric acid into CL-1; assay type: cell-based; conditions: 10 μmol/L (A and F also 1 or 5 μmol/L), 48 h culture
[2] = tested on: rabbit osteoarthritis model; assay: Pathology suppressing effect in a rabbit osteoarthritis model; assay type: in vivo; conditions: 3.0 mmol/L, vs solvent alone
Procedure: Rabbit osteoarthritis model was prepared using 12-week-old male NZW rabbits (Kitayama Labes Co., Ltd.), and performing partial menisectomy in right knee, and excision of the lateral collateral ligament and sesamoid ligament, according to the method of Colombo et al. (Arthritis Rheum. 26(7):875-886, 1983). Beginning on the 7th day after the operation, 500 μL of a 50% dimethylsulfoxide (DMSO) physiological saline solution (DMSO: Junsei Chemical Corp., physiological saline: Otsuka Pharmaceutical Corp.) or 3.0 mmol/L of compound A solution was intraarticularly administered once a day into the right knee joint for a period of 3 weeks. The daily dosage of compound A was 816.8 μg.
On the day following the day of final administration, the right femoral distal and crural proximal sections were taken, and the femur was immersed overnight in 2% paraformaldehyde-2.5% glutaraldehyde fixing solution (both by Wako Pure Chemical Industries) for fixation, while the crus was immersed for one week in 20% neutral buffered formalin (Wako Pure Chemical Industries) for fixation.
After post-fixation of the femoral distal section with 1% osmium solution (Wako Pure Chemical Industries), it was dipped in an increasing ethanol series for dehydrogenation, and then substituted with isoamyl acetate and subsequently dried with a critical point drying apparatus (Hitachi Co., Ltd.). The dried tissue surface was coated with gold using an ion sputter coating apparatus (Eiko Corp.), and the femoral condyle cartilage surface was observed using a scanning electron microscope (Hitachi Co., Ltd.) (FIGS. 15A and 15B). The area of the damaged sections of the articular cartilage in the electron photomicrograph was measured using IPAP image analysis software (Sumika Technoservice Co., Ltd.), and judged on the scale shown in Table 11 below.
The proximal region of tibia was trimmed with a band saw (EXAKT Corp.) and then demineralized for 4 weeks with 20% EDTA-4Na solution (pH 7.4, Wako Pure Chemical Industries). […]

[3] = 500 μL intraarticular once a day for 3 weeks from day 7 after operation

CCOC(CN1C(=O)[C@](CC(=O)Nc2ccc(C)cc2)(NC(=O)Nc2ccc(C)cc2)c2ccccc21)OCC [Compound A, (+)-1-(2,2-diethoxyethyl)-3-((4-methylphenyl)aminocarbonylmethyl)-3-(N′-(4-methylphenyl)ureido)indolin-2-one]
differentiation of CL-1 to adipocytes [1]: clearly suppress
medium grade lesion area of articular cartilage (scanning electron microscope) [2, 3]: significantly smaller area of damage
total lesion area of articular cartilage (scanning electron microscope) [2, 3]: significantly smaller area of damage
total histological scores, except for the loss of superficial layer ([2]; 500 μL intraarticular once a day for 3 weeks, Safranin O stained tibia sections): significantly lower
